Source: publication PMC8536124 (International Journal of Molecular Sciences, 2021)
Marks after values point to notes of the source that are not given here.

How the values were obtained:
SNB-75 = experiment: NCI-60 screening (SRB); format: cell-based, human; conditions: five-dose; for GI50 / CC50: Homo sapiens; for CC50: read-out: LC50 (the source's name)
M14 = experiment: NCI-60 screening (SRB); format: cell-based, human; conditions: five-dose; for GI50 / CC50: Homo sapiens; for CC50: read-out: LC50 (the source's name)
SK-MEL-28 cells = experiment: DAPI staining, nuclear morphology; format: cell-based, human; conditions: SK-MEL28, 24 h
Protocol: The cells were cultured in 24-well plates at 2 × 10^5 cells/well. Two samples (compounds 4 and 6) of three different concentrations (0.1, 1, and 5 μM) and three concentrations of DMSO (0.1, 1, 5 μM) were used to stimulate the cells. The immunofluorescent staining technique was performed according to the protocol in [92]. Thus, after 24 h of stimulation, the cells were fixed by adding 4% paraformaldehyde and incubating at room temperature for one hour. After fixation, cell permeability was performed with 2% Triton X solution in phosphate-buffered saline (PBS). After 30 min of incubation at room temperature, blocking of permeabilization was performed with 0.01% Triton X solution and incubation at RT for one hour. DAPI staining was used in a concentration of 300 nM to visualize the nuclei. The cells were analyzed by fluorescence microscope at 40× magnification using CellSens V1.15 software (Olympus, Tokyo, Japan) and Image J software.

A375 cells = experiment: Cell morphology and confluence; format: cell-based, human; conditions: 24 h
Protocol: A morphological examination of the tested cells was conducted in order to provide additional data for the investigated compounds in terms of their biological activity.

BAK gene, RPMI = experiment: Gene expression by qRT-PCR; format: cell-based, human; conditions: 1 μM, mean 2^∆∆Ct, DMSO 4.163
Description: (§1) Apoptosis at the cellular level can be initiated through the mitochondrial intrinsic pathway, which involves the Bcl-2 family of genes that includes the anti-apoptotic Bcl-XL and Bcl-2, as well as the pro-apoptotic Bak and Bax members; the balance between the expressions of anti- and pro-apoptotic proteins ensures physiological cell death. In cancers, the alterations occurring in gene expressions due to down- or up-regulations may result in delayed apoptosis and malignant proliferation. Thus, active compounds that modify the abnormal expression of genes involved in the apoptotic process may successfully act as anticancer agents. We tested the effect of compounds 4 and 6 on the expression of anti-apoptotic (Bcl-XL and Bcl-2) and pro-apoptotic (Bak and Bax) genes (Table 4, Figure 8).
(§2) Total RNA was extracted using peqGold RNAPureTM Package (Peqlab Biotechnology GmbH, Erlangen, Germany) according to the manufacturer’s instructions, and a DS-11 spectrophotometer (DeNovix, Wilmington, DE, USA) was used to measure total concentration of RNA. Reverse transcription was performed using the Maxima® First Strand cDNA Synthesis Kit (Fermentas, St. Leon-Rot, Germany), and the mix was incubated in the Tadvanced biometra product line (Analytik Jena AG, Jena, Germany) with a thermal program of 25 °C for 10 min, 85 °C for 5 min. Quantitative real-time PCR was conducted in a Quant Studio 5 real-time PCR system, (Thermo Fisher Scientific, Inc., Waltham, MA, USA), with analysis being performed in 20 µL reactions containing Power SYBR-Green PCR Master Mix (Thermo Fisher Scientific, Inc.). Cycling conditions were: 95 °C for 10 s followed by 40 cycles of denaturing at 95 °C for 15 s, and annealing and extension at 60 °C for 1 min.

BAK gene, SK-Mel-28 = experiment: Gene expression by qRT-PCR; format: cell-based, human; conditions: 1 μM, mean 2^∆∆Ct, DMSO 1.383
Description: as §1, §2

BAX gene, RPMI = experiment: Gene expression by qRT-PCR; format: cell-based, human; conditions: 1 μM, mean 2^∆∆Ct, DMSO 3.040
Description: as §1, §2

BAX gene, SK-Mel-28 = experiment: Gene expression by qRT-PCR; format: cell-based, human; conditions: 1 μM, mean 2^∆∆Ct, DMSO 2.086
Description: as §1, §2

Bcl-2 gene, A375 = experiment: Gene expression by qRT-PCR; format: cell-based, human; conditions: 1 μM, mean 2^∆∆Ct, DMSO 2.216
Description: as §1, §2

Bcl-XL gene, A375 = experiment: Gene expression by qRT-PCR; format: cell-based, human; conditions: 1 μM, mean 2^∆∆Ct, DMSO 4.550
Description: as §1, §2

Bcl-XL gene, SK-Mel-28 = experiment: Gene expression by qRT-PCR; format: cell-based, human; conditions: 1 μM, mean 2^∆∆Ct, DMSO 4.730
Description: as §1, §2

chorioallantoic membrane [1] = experiment: Chorioallantoic membrane (CAM) angiogenesis assay; format: in vivo, chicken; conditions: 1 µM in 0.5% DMSO
Protocol: CAM test also allows the assessment of a drug’s activity on tumor proliferation and distant metastasis, as well as drug toxicity. […] No anomalies were noticed in the angiogenic process after treatment with 0.5% DMSO in distilled water used as control.
The basic CAM assay protocol makes use of fertilized chicken eggs, incubated at 37 °C, under controlled humidity. On the third day of incubation (embryonic day of development, EDD), a small opening was made at one end of the eggs and 5–6 mL of albumen were removed, thus facilitating the separation of the chorioallantoic membrane. On EDD 4, a window was cut on the upper side of the egg and subsequently resealed, returning the specimens to the incubator. On EDD 7 (0 h), 10 µL of each test solution were administered inside a plastic ring previously applied on the intensely vascularized surface of the CAM [93]. All compounds were tested at a concentration of 1 µM in DMSO 0.5%, which also represented the control sample. All samples were daily applied in the same volume, for 72 h. For each analyzed sample, 5 eggs were used, and all samples were applied in triplicate. Macroscopic evaluation was daily performed in ovo by means of stereomicroscopy (ZEISS SteREO Discovery.V8, Göttingen, Germany), and all images were registered and processed by Axiocam 105 color, AxioVision SE64. Rel. 4.9.1 Software, (ZEISS Göttingen, Germany), ImageJ (ImageJ Version 1.50e, https://imagej.nih.gov/ij/index.html, accessed on 3 June 2021) and GIMP software (GIMP v 2.8, https://www.gimp.org/, accessed on 3 June 2021).

chorioallantoic membrane [2] = experiment: HET-CAM irritation assay; conditions: for Irritation Score: 300 µL, 5 min, test compounds 1 µM, scale 0 to 21; for Type of Effect: Luepke scale
Description: In this assay, the irritation potential may range from 0 to 21, with 0 being non-irritant and 21 being the most irritant. […] The irritation score was established according to Luepke scale: 0–0.9 indicates non-irritant, 1–4.9 indicates weakly irritant, 5–8.9 indicates moderately irritant, while 9–21 means strongly irritant (Table 6) [88, 89].
The in vivo Hen’s Egg Chorioallantoic Membrane Test (HET-CAM) assay determines a potential irritant effect on the vascular plexus of the chorioallantoic membrane [94]. The HET-CAM method was carried out following ICCVAM recommendations published in November 2016 in Appendix G and adapted to our conditions [88, 95, 96]. Thus, a volume of 300 µL of control or test solution was applied and the modifications produced at the CAM level were monitored by means of stereomicroscopy (Discovery 8 Stereomicroscope, Zeiss), registering significant images (Axio CAM 105 color, Zeiss), before application after 5 min of contact with the samples. All images were processed using Zeiss ZEN software, Gimp 2.8, and ImageJ software.
Negative control was represented by distilled water and solvent control DMSO 0.5%, and positive control by sodium lauryl sulphate (SLS) 0.5% in distillate water. The test substances were tested in concentrations of 1 µM.
Finally, the following reactions were: hemorrhage—H (blood vessel bleeding), vascular lysis—L (disintegration of blood vessels), coagulation—C (intra- or extra-vascular protein denaturizing). A variety of analysis methods may be used to assess irritancy potential of test substances. One analysis method that has been used extensively is an irritation score (IS). The formula used to generate an IS value is:(1) IS=5×301−Sec H/300+7×300−Sec L/300+9×301−Sec C/300 where: H = hemorrhage; L = vessel lysis; C = coagulation; hemorrhage time (Sec H) = onset of hemorrhage reactions on CAM (in seconds); lysis time (Sec L) = onset of vessel lysis on CAM (in seconds); coagulation time (Sec C) = onset of coagulation formation on CAM (in seconds). Means values are obtained. […] The IS values range on a scale between 0 and 21.

[3] = Compound stability in cell culture media (TLC); conditions: 5 μM in DMEM and EMEM, 72 h
Protocol: Prior to this assay, compound stability in cell culture media was evaluated after 72 h, using a thin-layer chromatography (TLC)-based protocol, with the necessary modifications [57, 58].
The stability of the assessed compounds in the culture media was evaluated by thin layer chromatography (TLC), this representing a viable and easy to achieve technique for this specific endpoint [57, 58]. […] The solutions were incubated for 72 h, after which the medium was extracted in CHCl3. […] The plate was successively developed with I2 vapors, UV light, and bromocresol green to determine various additional spots corresponding to some decomposition byproducts.

SR = experiment: NCI-60 screening (SRB); format: cell-based, human; conditions: five-dose; for GI50 / CC50: Homo sapiens; for CC50: read-out: LC50 (the source's name)
[4] = EDD7 to EDD10, up to 72 h post-treatment

Structure (SMILES)	GI50 (SNB-75) [nM]	CC50 (SNB-75) [µM]	TGI (SNB-75) [µM]	GI50 (M14) [nM]	CC50 (M14) [µM]	TGI (M14) [µM]	Expression of BAK gene, Mean (BAK gene, RPMI)	Expression of BAK gene, Mean (BAK gene, SK-Mel-28)	Expression of BAX gene, Mean (BAX gene, RPMI)	Expression of BAX gene, Mean (BAX gene, SK-Mel-28)	Expression of Bcl-2 gene, Mean (Bcl-2 gene, A375)	Expression of Bcl-XL gene, Mean (Bcl-XL gene, A375)	Expression of Bcl-XL gene, Mean (Bcl-XL gene, SK-Mel-28)	effect on angiogenesis (CAM) (chorioallantoic membrane [1]; [4])	Irritation Score (chorioallantoic membrane [2])	Type of Effect (chorioallantoic membrane [2])	stability in cell culture media (TLC) [3]	GI50 (SR) [nM]	CC50 (SR) [µM]	TGI (SR) [µM]	also measured
CCN1CCN(C(=O)[C@]23CC[C@@H](C)[C@H](C)[C@H]2C2=CC[C@@H]4[C@@]5(C)CCC(=O)C(C)(C)[C@@H]5CC[C@@]4(C)[C@]2(C)CC3)CC1 [Compound 4, N-(3-oxo-ursan-12-en-28-oyl)-ethylpiperazine]	1030	17.2	3.82	794	3.28	1.61	156.243 ***	101.820 **	0.460 **	0.023 ***	0.7366 **	0.500 *	0.086 ***	no alterations were noticed in terms of angiogenesis	0	Non-irritant	no signs of decomposition				nuclear morphology (DAPI) (SK-MEL-28 cells; 0.1 μM): intense condensation of the cell nuclei; nuclear morphology (DAPI) (SK-MEL-28 cells; 1 μM): chromatin condensation is accompanied by the formation of apoptotic bodies; nuclear morphology (DAPI) (SK-MEL-28 cells; 5 μM): incipient nuclear fragmentation; cell morphology and confluence (A375 cells; 0.1 μM): caused cell death; cell morphology and confluence (A375 cells; 1 and 5 μM): visible loss of cell confluence
CCN1CCN(C(=O)[C@]23CCC(C)(C)C[C@H]2C2=CC[C@@H]4[C@@]5(C)C/C(=C/c6cccnc6)C(=O)C(C)(C)[C@@H]5CC[C@@]4(C)[C@]2(C)CC3)CC1 [Compound 6]				1600	6.2	3.15	11.853 **	91.283 ***	0.640 **	0.140 ***	1.166	0.300	0.003 ***	did not significantly alter the angiogenesis process	0	Non-irritant	no signs of decomposition	959	> 100	5.13	nuclear morphology (DAPI) (SK-MEL-28 cells; 0.1, 1, 5 μM): dose-dependent effect was recorded in terms of membrane blebbing, nuclear condensation, and fragmentation; cell morphology and confluence (A375 cells; all concentrations (0.1, 1, 5 μM)): noticeable decrease in cell confluence; effect on angiogenesis (CAM) (chorioallantoic membrane [1]; after 24 h): weak antiangiogenic process
CCN1CCN(C(=O)[C@]23CC[C@@H](C)[C@H](C)[C@H]2C2=CC[C@@H]4[C@@]5(C)C/C(=C/c6cccnc6)C(=O)C(C)(C)[C@@H]5CC[C@@]4(C)[C@]2(C)CC3)CC1 [Compound 9, N-(2-{3-Pyridinylidene}-3-oxoursan-12-en-28-oyl)-ethylpiperazine]	1570	39.9	8.91															2180	> 100	6.35	
